Results from patent US9938273B2 (Plexxikon Inc., priority 2015, dated 2018).

Target: T1, FLT3-D835Y (Homo sapiens, UniProt P36888, D835Y)
T1 construct: purchased Invitrogen PV3967
T1 sequence (P36888 27-993 D835Y): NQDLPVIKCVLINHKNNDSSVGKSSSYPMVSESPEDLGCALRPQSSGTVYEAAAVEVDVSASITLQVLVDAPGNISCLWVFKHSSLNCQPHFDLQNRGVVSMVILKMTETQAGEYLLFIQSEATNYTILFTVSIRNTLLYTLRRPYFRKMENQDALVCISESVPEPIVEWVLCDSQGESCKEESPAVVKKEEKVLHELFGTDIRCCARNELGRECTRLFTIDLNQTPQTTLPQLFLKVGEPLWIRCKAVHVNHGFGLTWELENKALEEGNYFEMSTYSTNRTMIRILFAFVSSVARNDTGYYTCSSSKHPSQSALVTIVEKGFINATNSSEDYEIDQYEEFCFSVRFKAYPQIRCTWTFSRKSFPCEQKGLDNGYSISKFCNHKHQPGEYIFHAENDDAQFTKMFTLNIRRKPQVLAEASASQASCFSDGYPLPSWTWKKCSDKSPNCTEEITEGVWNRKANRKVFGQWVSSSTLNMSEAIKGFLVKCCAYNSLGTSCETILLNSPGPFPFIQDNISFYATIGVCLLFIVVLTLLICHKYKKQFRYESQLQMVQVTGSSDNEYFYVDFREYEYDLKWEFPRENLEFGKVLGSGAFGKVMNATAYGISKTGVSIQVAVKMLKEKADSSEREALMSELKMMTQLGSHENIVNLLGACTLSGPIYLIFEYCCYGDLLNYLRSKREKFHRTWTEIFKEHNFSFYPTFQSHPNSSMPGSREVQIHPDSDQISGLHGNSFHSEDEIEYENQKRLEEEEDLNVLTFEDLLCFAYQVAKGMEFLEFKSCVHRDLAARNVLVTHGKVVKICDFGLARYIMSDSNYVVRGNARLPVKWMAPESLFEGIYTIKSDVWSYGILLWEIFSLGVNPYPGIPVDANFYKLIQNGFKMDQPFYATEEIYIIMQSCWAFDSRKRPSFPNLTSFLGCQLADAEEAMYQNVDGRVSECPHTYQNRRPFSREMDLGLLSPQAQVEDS
Assay: AlphaScreen kinase assay with recombinant enzyme, FLT3-D835Y
Type: biochemical
Settings: 8pt, GMean
Outline: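 Inhibition was measured as a drop in AlphaScreen signal arising from phosphotyrosine-bead capture of a biotinylated poly(Glu4-Tyr) peptide (30 nM) phosphorylated by recombinant kinase. For IC50 work the stated final concentration was 10 μM for the FLT3 mutants and 100 μM for c-KIT.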

Row | IC50 [µM] | SMILES
1 | 0.0001 to 10 | CONC(=O)c1cccc(-c2cnc3[nH]c(-c4ccccc4)cc3c2)c1 [Compound P-0003, N-methoxy-3-(2-phenyl-1H-pyrrolo[2,3-b]pyridin-5-yl)benzamide]
2 | 0.0001 to 10 | C#Cc1cc2cc(-c3cccc(S(=O)(=O)NC4CC4)c3)cnc2[nH]1 [Compound P-0004, N-cyclopropyl-3-(2-ethynyl-1H-pyrrolo[2,3-b]pyridin-5-yl)benzenesulfonamide]
3 | 10 to 50 | NC(=O)Nc1ccc(-c2cnc3[nH]c(-c4ccccc4)cc3c2)cc1 [Compound P-0005, [4-(2-phenyl-1H-pyrrolo[2,3-b]pyridin-5-yl)phenyl]urea]
4 | 0.0001 to 10 | CNC(=O)Nc1ccc(-c2cnc3[nH]c(-c4ccccc4)cc3c2)cc1 [Compound P-0006, 1-methyl-3-[4-(2-phenyl-1H-pyrrolo[2,3-b]pyridin-5-yl)phenyl]urea]
5 | 0.0001 to 10 | CN(C)S(=O)(=O)Nc1cccc(-c2cnc3[nH]c(-c4ccccc4)cc3c2)c1 [Compound P-0007, 5-[3-(dimethylsulfamoylamino)phenyl]-2-phenyl-1H-pyrrolo[2,3-b]pyridine]
6 | 0.0001 to 10 | O=S(=O)(NC1CC1)c1cccc(-c2cnc3[nH]c(C#CCO)cc3c2)c1 [Compound P-0008, N-cyclopropyl-3-[2-(3-hydroxyprop-1-ynyl)-1H-pyrrolo[2,3-b]pyridin-5-yl]benzenesulfonamide]
7 | 0.0001 to 10 | CN(C)CC#Cc1cc2cc(-c3cccc(S(=O)(=O)NC4CC4)c3)cnc2[nH]1 [Compound P-0009, N-cyclopropyl-3-[2-[3-(dimethylamino)prop-1-ynyl]-1H-pyrrolo[2,3-b]pyridin-5-yl]benzenesulfonamide]
8 | 50 to 100 | O=S(=O)(NC1CC1)c1cccc(-c2cnc3[nH]c(C#CC4CCCCC4)cc3c2)c1 [Compound P-0010, 3-[2-(2-cyclohexylethynyl)-1H-pyrrolo[2,3-b]pyridin-5-yl]-N-cyclopropyl-benzenesulfonamide]
9 | 0.0001 to 10 | CC(C)(C)OC(=O)NC1CCN(C(=O)c2n[nH]c3ccc(-c4cnc5[nH]c(-c6ccccc6)cc5c4)cc23)CC1 [Compound P-0011, tert-butyl N-[1-[5-(2-phenyl-1H-pyrrolo[2,3-b]pyridin-5-yl)-1H-indazole-3-carbonyl]-4-piperidyl]carbamate]
10 | 50 to 100 | O=S(=O)(NC1CC1)c1cccc(-c2cnc3[nH]c(C#Cc4ccccc4)cc3c2)c1 [Compound P-0014, N-cyclopropyl-3-[2-(2-phenylethynyl)-1H-pyrrolo[2,3-b]pyridin-5-yl]benzenesulfonamide]
11 | 0.0001 to 10 | N[C@H]1CCN(C(=O)c2cccc(-c3cnc4[nH]c(-c5ccccc5)cc4c3)n2)C1 [Compound P-0015, [(3S)-3-aminopyrrolidin-1-yl]-[6-(2-phenyl-1H-pyrrolo[2,3-b]pyridin-5-yl)-2-pyridyl]methanone]
12 | 0.0001 to 10 | N[C@H]1CCN(C(=O)c2n[nH]c3ccc(-c4cnc5[nH]c(-c6ccccc6)cc5c4)cc23)C1 [Compound P-0016, [(3S)-3-aminopyrrolidin-1-yl]-[5-(2-phenyl-1H-pyrrolo[2,3-b]pyridin-5-yl)-1H-indazol-3-yl]methanone]
13 | 0.0001 to 10 | CC(C)(C)OC(=O)NC1CCN(C(=O)c2cccc(-c3cnc4[nH]c(-c5ccccc5)cc4c3)n2)CC1 [Compound P-0017, tert-butyl N-[1-[6-(2-phenyl-1H-pyrrolo[2,3-b]pyridin-5-yl)pyridine-2-carbonyl]-4-piperidyl]carbamate]
14 | 0.0001 to 10 | CC(=O)NC1CCN(C(=O)c2cccc(-c3cnc4[nH]c(-c5ccccc5)cc4c3)n2)CC1 [Compound P-0020, N-[1-[6-(2-phenyl-1H-pyrrolo[2,3-b]pyridin-5-yl)pyridine-2-carbonyl]-4-piperidyl]acetamide]
15 | 0.0001 to 10 | CC(=O)NC1CCN(C(=O)c2n[nH]c3ccc(-c4cnc5[nH]c(-c6ccccc6)cc5c4)cc23)CC1 [Compound P-0021, N-[1-[5-(2-phenyl-1H-pyrrolo[2,3-b]pyridin-5-yl)-1H-indazole-3-carbonyl]-4-piperidyl]acetamide]
